Holding throughout (type): in vivo
The subject of series [1] is wheat. Briefly: Pre-emergence test, damage to crop plants. Particulars: application rate 320 g/ha, scored visually after 3 weeks. The text has this:
(§1) Seeds of monocotyledonous and dicotyledonous weed plants and crop plants are laid out in wood-fiber pots in sandy loam and covered with soil. The inventive compounds, formulated in the form of wettable powders (WP) or as emulsion concentrates (EC), are then applied to the surface of the soil cover in the form of an aqueous suspension or emulsion at a water application rate equating to 600 to 800 l/ha, with addition of 0.2% wetting agent. After the treatment, the pots are placed in a greenhouse and kept under good growth conditions for the test plants. The damage to the trial plants is scored visually after a test period of 3 weeks by comparison with untreated controls (herbicidal activity in percent (%): 100% efficacy=the plants have died, 0% efficacy=like control plants). In this test, for example, compounds no. […] Compounds no. […] Compounds no.

Series [2] has as its system corn. As to the kind of experiment: Pre-emergence test, damage to crop plants. The following applies: application rate 320 g/ha, scored visually after 3 weeks.
Source text: as §1

Series [3] deals with wheat. Briefly: Post-emergence test, damage to crop plants. The following applies: application rate 80 g/ha, scored visually after about 3 weeks. How it is done: (§2) Seeds of monocotyledonous and dicotyledonous weed and crop plants are laid out in sandy loam in wood-fiber pots, covered with soil and cultivated in a greenhouse under good growth conditions. 2 to 3 weeks after sowing, the test plants are treated at the one-leaf stage. The inventive compounds, formulated in the form of wettable powders (WP) or as emulsion concentrates (EC), are then sprayed as aqueous suspension or emulsion at a water application rate equating to 600 to 800 I/ha with the addition of 0.2% of wetting agent onto the green parts of the plants. After the trial plants have been left to stand in a greenhouse under optimal growth conditions for about 3 weeks, the efficacy of the formulations is scored visually in comparison to untreated controls (herbicidal action in percent (%): 100% efficacy=the plants have died, 0% efficacy=like control plants). In this test, for example, compounds no. […] Compounds no. […] Compounds no.

Series [4] relates to rice. As to the kind of experiment: Post-emergence test, damage to crop plants. Particulars: application rate 80 g/ha, scored visually after about 3 weeks. On the procedure: as §2
The subject of series [5] is corn. As to the kind of experiment: Post-emergence test, damage to crop plants. Particulars: application rate 80 g/ha, scored visually after about 3 weeks. On the procedure:
as §2

With `Cc1c(C(=O)Nc2nnnn2C)ccc2c1S(=O)(=O)C=C2` [7-1], the damage in wheat entry in series [1] is given as “did not cause any damage at all”.

For the molecule `CC1=Cc2c(ccc(C(=O)Nc3nonc3C)c2Cl)S1(=O)=O` [17-19], the damage in wheat entry in series [1] and in series [3] was “did not cause any damage at all” throughout. Besides, in series [2], the damage in corn result was “did not cause any damage at all”. For the same molecule, the damage in rice entry in series [4] is on record as “did not cause any damage at all”.

As to `CC1=Cc2c(ccc(C(=O)Nc3nnnn3Cc3ccc(Cl)cc3)c2Cl)S1(=O)=O` [59-51], the damage in wheat result in series [3] is on record as “did not cause any damage at all”. In addition, the damage in corn result in series [5] is listed as “did not cause any damage at all”.

As for `CC1=Cc2c(ccc(C(=O)Nc3nonc3-n3cncn3)c2Cl)S1(=O)=O` [60-115], the damage in wheat result in series [1] is reported as “did not cause any damage at all”. For the same molecule, the damage in corn entry in series [2] was “did not cause any damage at all”.

Consider `Cc1c(C(=O)Nc2nnnn2C)ccc2c1SCC=C2` [61-1], for which the damage in wheat entry in series [1] and in series [3] was “did not cause any damage at all” throughout. Further, the damage in rice entry in series [4] is recorded as “did not cause any damage at all”.

For `Cc1c(C(=O)Nc2nnnn2C)ccc2c1S(=O)(=O)CC=C2` [67-1], the damage in wheat entry in series [3] was “did not cause any damage at all”. Besides, the damage in corn result in series [5] is “did not cause any damage at all”.

Values taken from patent US20150216171A1, “HERBICIDALLY ACTIVE BICYCLOARYL CARBOXYLIC ACID AMIDES” (BAYER CROPSCIENCE AG, priority 2012, published 2015).
